smiles,measurement,setting,value
Cc1ccc(S(C)(=O)=O)cc1,solubility (mole fraction),"in DMF, 278.15 K",0.123
same,solubility (mole fraction),"in DMF, 283.15 K",0.146
same,solubility (mole fraction),"in DMF, 288.15 K",0.177
same,solubility (mole fraction),"in DMF, 293.15 K",0.208
same,solubility (mole fraction),"in DMF, 298.15 K",0.244
same,solubility (mole fraction),"in DMF, 303.15 K",0.282
same,solubility (mole fraction),"in DMF, 308.15 K",0.332
same,solubility (mole fraction),"in DMF, 313.15 K",0.389
same,solubility (mole fraction),"in DMF, 318.15 K",0.45
same,solubility (mole fraction),"in acetone, 278.15 K",0.0999
same,solubility (mole fraction),"in acetone, 283.15 K",0.118
same,solubility (mole fraction),"in acetone, 288.15 K",0.144
same,solubility (mole fraction),"in acetone, 293.15 K",0.172
same,solubility (mole fraction),"in acetone, 298.15 K",0.199
same,solubility (mole fraction),"in acetone, 303.15 K",0.234
same,solubility (mole fraction),"in acetone, 308.15 K",0.274
same,solubility (mole fraction),"in acetone, 313.15 K",0.322
same,solubility (mole fraction),"in acetone, 318.15 K",0.379
same,solubility (mole fraction),"in acetonitrile, 278.15 K",0.084
same,solubility (mole fraction),"in acetonitrile, 283.15 K",0.102
same,solubility (mole fraction),"in acetonitrile, 288.15 K",0.13
same,solubility (mole fraction),"in acetonitrile, 293.15 K",0.155
same,solubility (mole fraction),"in acetonitrile, 298.15 K",0.183
same,solubility (mole fraction),"in acetonitrile, 303.15 K",0.218
same,solubility (mole fraction),"in acetonitrile, 308.15 K",0.258
same,solubility (mole fraction),"in acetonitrile, 313.15 K",0.3
same,solubility (mole fraction),"in acetonitrile, 318.15 K",0.359
same,solubility (mole fraction),"in ethanol, 278.15 K",0.00721
same,solubility (mole fraction),"in ethanol, 283.15 K",0.00993
same,solubility (mole fraction),"in ethanol, 288.15 K",0.0137
same,solubility (mole fraction),"in ethanol, 293.15 K",0.018
same,solubility (mole fraction),"in ethanol, 298.15 K",0.0241
same,solubility (mole fraction),"in ethanol, 303.15 K",0.0321
same,solubility (mole fraction),"in ethanol, 308.15 K",0.042
same,solubility (mole fraction),"in ethanol, 313.15 K",0.055
same,solubility (mole fraction),"in ethanol, 318.15 K",0.0712
same,solubility (mole fraction),"in ethyl acetate, 278.15 K",0.0611
same,solubility (mole fraction),"in ethyl acetate, 283.15 K",0.0732
same,solubility (mole fraction),"in ethyl acetate, 288.15 K",0.0872
same,solubility (mole fraction),"in ethyl acetate, 293.15 K",0.103
same,solubility (mole fraction),"in ethyl acetate, 298.15 K",0.123
same,solubility (mole fraction),"in ethyl acetate, 303.15 K",0.144
same,solubility (mole fraction),"in ethyl acetate, 308.15 K",0.171
same,solubility (mole fraction),"in ethyl acetate, 313.15 K",0.203
same,solubility (mole fraction),"in ethyl acetate, 318.15 K",0.236
same,solubility (mole fraction),"in isopropanol, 278.15 K",0.00415
same,solubility (mole fraction),"in isopropanol, 283.15 K",0.00579
same,solubility (mole fraction),"in isopropanol, 288.15 K",0.008
same,solubility (mole fraction),"in isopropanol, 293.15 K",0.011
same,solubility (mole fraction),"in isopropanol, 298.15 K",0.0149
same,solubility (mole fraction),"in isopropanol, 303.15 K",0.0203
same,solubility (mole fraction),"in isopropanol, 308.15 K",0.0275
same,solubility (mole fraction),"in isopropanol, 313.15 K",0.0367
same,solubility (mole fraction),"in isopropanol, 318.15 K",0.0491
same,solubility (mole fraction),"in methanol, 278.15 K",0.0111
same,solubility (mole fraction),"in methanol, 283.15 K",0.0153
same,solubility (mole fraction),"in methanol, 288.15 K",0.0207
same,solubility (mole fraction),"in methanol, 293.15 K",0.0282
same,solubility (mole fraction),"in methanol, 298.15 K",0.0376
same,solubility (mole fraction),"in methanol, 303.15 K",0.05
same,solubility (mole fraction),"in methanol, 308.15 K",0.0657
same,solubility (mole fraction),"in methanol, 313.15 K",0.0858
same,solubility (mole fraction),"in methanol, 318.15 K",0.111
same,solubility (mole fraction),"in n-butanol, 278.15 K",0.00408
same,solubility (mole fraction),"in n-butanol, 283.15 K",0.00599
same,solubility (mole fraction),"in n-butanol, 288.15 K",0.00869
same,solubility (mole fraction),"in n-butanol, 293.15 K",0.0125
same,solubility (mole fraction),"in n-butanol, 298.15 K",0.0178
same,solubility (mole fraction),"in n-butanol, 303.15 K",0.0252
same,solubility (mole fraction),"in n-butanol, 308.15 K",0.0353
same,solubility (mole fraction),"in n-butanol, 313.15 K",0.0492
same,solubility (mole fraction),"in n-butanol, 318.15 K",0.0681
same,solubility (mole fraction),"in n-propanol, 278.15 K",0.00596
same,solubility (mole fraction),"in n-propanol, 283.15 K",0.00839
same,solubility (mole fraction),"in n-propanol, 288.15 K",0.012
same,solubility (mole fraction),"in n-propanol, 293.15 K",0.016
same,solubility (mole fraction),"in n-propanol, 298.15 K",0.022
same,solubility (mole fraction),"in n-propanol, 303.15 K",0.03
same,solubility (mole fraction),"in n-propanol, 308.15 K",0.04
same,solubility (mole fraction),"in n-propanol, 313.15 K",0.052
same,solubility (mole fraction),"in n-propanol, 318.15 K",0.069
